In brackets after ≈: the same amount, converted by molar mass.
Test: Solubility test of various crystal forms (water solubility)
Format: physicochemical
Settings: concentration of saturated solution determined through measuring absorbance (FIG. 8)
Experimental: Solubility Test of Various Crystal Forms
The water solubilities of type I crystals, type II crystals, and the hydrate of compound (1) were determined by calculating each sample concentration of its saturated solution determined through measuring absorbance.

water solubility [µg/mL]	Compound
1.9	N#Cc1cc(-c2n[nH]c(-c3ccncc3)n2)ccn1 [hydrate, 4-[5-(pyridin-4-yl)-1H-1,2,4-triazol-3-yl]pyridine-2-carbonitrile]
6.2 (≈ 25 µM)	N#Cc1cc(-c2n[nH]c(-c3ccncc3)n2)ccn1 [type I crystals, 4-[5-(pyridin-4-yl)-1H-1,2,4-triazol-3-yl]pyridine-2-carbonitrile]
4.2 (≈ 16.9 µM)	N#Cc1cc(-c2n[nH]c(-c3ccncc3)n2)ccn1 [type II crystals, 4-[5-(pyridin-4-yl)-1H-1,2,4-triazol-3-yl]pyridine-2-carbonitrile]

Reference: US9199970B2, “4-[5-(pyridin-4-yl)-1H-1,2,4-triazol-3-yl]pyridine-2-carbonitrile crystalline polymorph and production method therefor” (FUJIYAKUHIN CO., LTD., priority 2012, dated 2015)
